Assay results: ChEMBL document CHEMBL1201862, “PubChem BioAssay data set” (2004)
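The compound was tested at five concentrations on cells cultured in 96-well plates, with a 48-hour exposure period. The concentration for 50% growth inhibition is given as GI50.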 Activity calls are given as the source filed them. Cut-off read from the data, not from the text of the source: active = GI50 up to about 1.1 µM and inactive = higher.

Legend:
Assay in all cases: inhibition of tumour cell growth, NCI panel, 48 h
[1] = tested on: SNB-19
[2] = tested on: M14
[3] = tested on: 786-0
[4] = tested on: CAKI-1
[5] = tested on: MOLT-4
[6] = tested on: A498
[7] = tested on: SF-539
[8] = tested on: SW-620
[9] = tested on: IGROV-1
[10] = tested on: Malme-3M
[11] = tested on: SK-MEL-28
[12] = tested on: UO-31
[13] = tested on: SF-268
[14] = tested on: RXF 393
[15] = tested on: NCI-H23
[16] = tested on: NCI-H522
[17] = tested on: CCRF-CEM
[18] = tested on: SF-295
[19] = tested on: U-251
[20] = tested on: SR

Row | Compound | GI50 [1] | GI50 [2] | GI50 [3] | GI50 [4] | GI50 [5] | GI50 [6] | GI50 [7] | GI50 [8] | GI50 [9] | GI50 [10] | GI50 [11] | GI50 [12] | GI50 [13] | GI50 [14] | GI50 [15] | GI50 [16] | GI50 [17] | GI50 [18] | GI50 [19] | GI50 [20]
1 | NC(=S)N/N=C(/CC(=O)c1ccccc1)C(=O)Nc1ccc(Cl)c(Cl)c1 | 91.2 µM (inactive) | > 100 µM (inactive) | 59.7 µM (inactive) | 68.5 µM (inactive) | 32.3 µM (inactive) | > 100 µM (inactive) | > 100 µM (inactive) | 78.5 µM (inactive) | 65.2 µM (inactive) | > 100 µM (inactive) | > 100 µM (inactive) | 51.2 µM (inactive) | > 100 µM (inactive) | > 100 µM (inactive) | > 100 µM (inactive) | 21.6 µM (inactive) | 28.6 µM (inactive) | 61.9 µM (inactive) | 59 µM (inactive) | 
2 | O=[N+]([O-])c1ccc(Cl)c2c([N+](=O)[O-])cccc12 | 8.51 µM (inactive) |  | 3.14 µM (inactive) |  | 4.9 µM (inactive) |  | 3.06 µM (inactive) | 2.91 µM (inactive) | 8.02 µM (inactive) | 5.82 µM (inactive) | 7.93 µM (inactive) |  | 3.87 µM (inactive) | > 10 µM (inactive) | 9.27 µM (inactive) |  | 2.36 µM (inactive) | > 10 µM (inactive) |  | 3.95 µM (inactive)
3 | COC([C@@H](OC(=O)c1ccccc1)[C@H](OC(=O)c1ccccc1)C(O)COC(=O)c1ccccc1)n1cc(C)c(=O)[nH]c1=O (some centres not stated) | 22.2 µM (inactive) | 22.8 µM (inactive) | 26.2 µM (inactive) |  | 3.6 µM (inactive) |  |  | 21.3 µM (inactive) | 31.4 µM (inactive) | 23.6 µM (inactive) | 39.3 µM (inactive) | 25.5 µM (inactive) | 29.7 µM (inactive) | 14 µM (inactive) | 29.4 µM (inactive) | 20.4 µM (inactive) |  | 24.4 µM (inactive) | 14.5 µM (inactive) | 29.7 µM (inactive)
4 | N#CC(C(=O)c1ccccc1F)c1nc2cc(C(F)(F)F)ccc2s1 (configuration not stated) |  |  | 19.6 µM (inactive) | 32.3 µM (inactive) | 31.1 µM (inactive) | 14 µM (inactive) | 33.4 µM (inactive) | 30.6 µM (inactive) | 36.3 µM (inactive) | 19.6 µM (inactive) | 29.4 µM (inactive) |  | 30.3 µM (inactive) | 24 µM (inactive) | 19.7 µM (inactive) | 17.3 µM (inactive) |  | 14.3 µM (inactive) | 26.7 µM (inactive) | 
5 | Oc1ccc(-c2nc(-c3cccnc3)c(-c3ccc(Cl)cc3)[nH]2)cc1O | 13 µM (inactive) | 13.6 µM (inactive) | 12 µM (inactive) | 15.1 µM (inactive) | 3.78 µM (inactive) |  |  | 12.4 µM (inactive) | 4.34 µM (inactive) | 14 µM (inactive) | 17.5 µM (inactive) | 12.8 µM (inactive) | 11.5 µM (inactive) | 12.7 µM (inactive) | 11.7 µM (inactive) | 1.13 µM (inactive) | 4.48 µM (inactive) | 16.2 µM (inactive) | 11 µM (inactive) | > 100 µM (inactive)
6 | Cc1nc2c(n1Cc1ccc(F)cc1)C(=O)c1ccccc1C2=O | > 100 µM (inactive) | > 100 µM (inactive) | 13.1 µM (inactive) |  | 5.4 µM (inactive) |  | 6.98 µM (inactive) | 41.3 µM (inactive) | 25.8 µM (inactive) | 8.89 µM (inactive) | > 100 µM (inactive) | > 100 µM (inactive) | 4.6 µM (inactive) | 14.9 µM (inactive) | 13.2 µM (inactive) | 10.8 µM (inactive) | 10.5 µM (inactive) | 44.2 µM (inactive) | 6.56 µM (inactive) | 4.29 µM (inactive)
7 | CC1(C)S[C@@H]2[C@H](N3C(=O)c4ccccc4C3=O)CN2[C@H]1NC(=O)N[C@@H]1N2C[C@@H](N3C(=O)c4ccccc4C3=O)[C@H]2SC1(C)C | 43.2 µM (inactive) | > 100 µM (inactive) | 54.5 µM (inactive) | > 100 µM (inactive) | > 100 µM (inactive) | > 100 µM (inactive) | 55.1 µM (inactive) | > 100 µM (inactive) | > 100 µM (inactive) | > 100 µM (inactive) | > 100 µM (inactive) | > 100 µM (inactive) | 28.9 µM (inactive) | 45.3 µM (inactive) | > 100 µM (inactive) | > 100 µM (inactive) | > 100 µM (inactive) | 75.7 µM (inactive) | 27 µM (inactive) | 
8 | CC1=C(C)SC(=C2Sc3c(n(C)c(=O)n(C)c3=O)S2)S1 | 32.3 µM (inactive) | > 100 µM (inactive) | 17.4 µM (inactive) | 64.3 µM (inactive) | > 100 µM (inactive) | 27.4 µM (inactive) | 13.2 µM (inactive) | > 100 µM (inactive) | 59.2 µM (inactive) | > 100 µM (inactive) | > 100 µM (inactive) | 59 µM (inactive) | 43.8 µM (inactive) | 48.4 µM (inactive) | 34.4 µM (inactive) | 57.3 µM (inactive) | > 100 µM (inactive) | 28.7 µM (inactive) | 4.14 µM (inactive) | 
9 | CC[N+]1(C)CCC(O)(/C=C/c2ccc(Cl)cc2)C(C(=O)/C=C/c2ccc(Cl)cc2)C1 (configuration not stated) | 4.46 µM (inactive) | > 19.9 µM (inactive) | 3.01 µM (inactive) | 1.9 µM (inactive) | 2.5 µM (inactive) | 16.4 µM (inactive) | 2.35 µM (inactive) | 2.56 µM (inactive) | 4.7 µM (inactive) | 6.62 µM (inactive) | 6.17 µM (inactive) | 6.58 µM (inactive) | 4.55 µM (inactive) | 7.66 µM (inactive) | 9.89 µM (inactive) | 2.88 µM (inactive) | 1.08 µM (active) | 16.2 µM (inactive) | 3.81 µM (inactive) | 
10 | CSc1nc(-c2ccccc2)[nH]c(=O)n1 | > 100 µM (inactive) | > 100 µM (inactive) | > 100 µM (inactive) | > 100 µM (inactive) | > 100 µM (inactive) | > 100 µM (inactive) | > 100 µM (inactive) | > 100 µM (inactive) | > 100 µM (inactive) | 59 µM (inactive) | > 100 µM (inactive) | > 100 µM (inactive) | > 100 µM (inactive) | > 100 µM (inactive) | > 100 µM (inactive) | > 100 µM (inactive) | > 100 µM (inactive) | > 100 µM (inactive) | > 100 µM (inactive) | 
11 | CC(C)C1OC(N)=C(C#N)C1(C#N)C#N (configuration not stated) | 46.8 µM (inactive) | 60.7 µM (inactive) | 29.4 µM (inactive) | 3.79 µM (inactive) |  | > 100 µM (inactive) | 44.7 µM (inactive) | 14.3 µM (inactive) | 51.4 µM (inactive) | > 100 µM (inactive) |  | 33.1 µM (inactive) | 44.2 µM (inactive) | 44.7 µM (inactive) | 33.3 µM (inactive) | 34.6 µM (inactive) | 10.9 µM (inactive) | > 100 µM (inactive) | 54.1 µM (inactive) | 
12 | CCOC(=O)CSc1[nH]c2nc(C)nc(Cl)c2c1C#N |  | > 10 µM (inactive) | > 10 µM (inactive) | > 10 µM (inactive) | > 10 µM (inactive) |  |  | > 10 µM (inactive) | > 10 µM (inactive) | > 10 µM (inactive) | > 10 µM (inactive) |  | > 10 µM (inactive) | > 10 µM (inactive) | > 10 µM (inactive) |  | > 10 µM (inactive) | > 10 µM (inactive) |  | > 10 µM (inactive)
13 | C=CCNC(=O)N(CCCCC(NC(C)=O)C(=O)NCc1ccccc1)Cc1ccccc1 (configuration not stated) | > 100 µM (inactive) | > 100 µM (inactive) | > 100 µM (inactive) | > 100 µM (inactive) | > 100 µM (inactive) | > 100 µM (inactive) | > 100 µM (inactive) | > 100 µM (inactive) | > 100 µM (inactive) | > 100 µM (inactive) | > 100 µM (inactive) | > 100 µM (inactive) | > 100 µM (inactive) | > 100 µM (inactive) | > 100 µM (inactive) | > 100 µM (inactive) | > 100 µM (inactive) | > 100 µM (inactive) | > 100 µM (inactive) | 
14 | COC1=N[C@H](C(C)C)C(OC)=N[C@H]1Cc1ccc(C[C@@H]2N=C(OC)[C@@H](C(C)C)N=C2OC)s1 | 54.5 µM (inactive) | 36 µM (inactive) | 45.6 µM (inactive) | 50.2 µM (inactive) | 20 µM (inactive) |  | > 100 µM (inactive) | 39.9 µM (inactive) | > 100 µM (inactive) | 22.6 µM (inactive) | 34.7 µM (inactive) | 45.4 µM (inactive) | 67.8 µM (inactive) |  | 25.1 µM (inactive) | 23.7 µM (inactive) | 19.5 µM (inactive) | 38.2 µM (inactive) | 24 µM (inactive) | 19.5 µM (inactive)
15 | CC1CC[C@@]2(OC1)O[C@H]1[C@H](O)[C@H]3[C@@H]4CC[C@H]5C[C@@H](OC6OC(CO)C(OC7OC(CO)C(O)C(OC8OCC(O)C(O)C8O)C7OC7OC(CO)C(O)C(O)C7OC7OC(CO)C(O)C(O)C7O)C(O)C6O)[C@H](O)C[C@]5(C)[C@H]4CC[C@]3(C)[C@H]1[C@@H]2C (some centres not stated) | 9.35 µM (inactive) | > 10 µM (inactive) | 3.12 µM (inactive) | > 10 µM (inactive) | 0.144 µM (active) | > 10 µM (inactive) | 9.46 µM (inactive) | > 10 µM (inactive) | 3.7 µM (inactive) | > 10 µM (inactive) | > 10 µM (inactive) | 4.18 µM (inactive) | > 10 µM (inactive) | > 10 µM (inactive) | 5.24 µM (inactive) | 2.78 µM (inactive) | 0.942 µM (active) |  | 5.01 µM (inactive) | 
